PubChem BioAssay (NCI)
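These data come from cells grown in 96-well plates and exposed to compound for 48 hours at five concentrations. GI50 = concentration required for 50% inhibition of growth. TGI marks complete inhibition of growth.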

Columns and labels:
Test in all cases: NCI tumour cell line growth inhibition, 48 h
786-0 renal = system: 786-0 renal
A498 renal = system: A498 renal
A549 NSCLC = system: A549 NSCLC
ACHN renal = system: ACHN renal
BT-549 breast = system: BT-549 breast
CAKI-1 renal = system: CAKI-1 renal
CCRF-CEM leukemia = system: CCRF-CEM leukemia
COLO 205 colon = system: COLO 205 colon
DU-145 prostate = system: DU-145 prostate
EKVX NSCLC = system: EKVX NSCLC
HCC-2998 colon = system: HCC-2998 colon
HCT-116 colon = system: HCT-116 colon
HCT-15 colon = system: HCT-15 colon
HL-60(TB) leukemia = system: HL-60(TB) leukemia
HOP-62 NSCLC = system: HOP-62 NSCLC
HS 578T breast = system: HS 578T breast
HT29 colon = system: HT29 colon
IGROV1 ovarian = system: IGROV1 ovarian
K-562 leukemia = system: K-562 leukemia
KM12 colon = system: KM12 colon
LOX IMVI melanoma = system: LOX IMVI melanoma
M14 melanoma = system: M14 melanoma
MALME-3M melanoma = system: MALME-3M melanoma
MCF7 breast = system: MCF7 breast
MDA-MB-231 breast = system: MDA-MB-231 breast
MDA-MB-435 = system: MDA-MB-435
MOLT-4 leukemia = system: MOLT-4 leukemia
NCI-H226 lung = system: NCI-H226 lung
NCI-H23 lung = system: NCI-H23 lung
NCI-H460 lung = system: NCI-H460 lung
NCI-H522 lung = system: NCI-H522 lung
NCI/ADR-RES ovarian = system: NCI/ADR-RES ovarian
OVCAR-3 ovarian = system: OVCAR-3 ovarian
OVCAR-4 ovarian = system: OVCAR-4 ovarian
OVCAR-5 ovarian = system: OVCAR-5 ovarian
OVCAR-8 ovarian = system: OVCAR-8 ovarian
PC-3 prostate = system: PC-3 prostate
RPMI-8226 leukemia = system: RPMI-8226 leukemia
RXF 393 renal = system: RXF 393 renal
SF-268 CNS = system: SF-268 CNS
SF-295 CNS = system: SF-295 CNS
SF-539 CNS = system: SF-539 CNS
SK-MEL-2 melanoma = system: SK-MEL-2 melanoma
SK-MEL-28 melanoma = system: SK-MEL-28 melanoma
SK-MEL-5 melanoma = system: SK-MEL-5 melanoma
SK-OV-3 ovarian = system: SK-OV-3 ovarian
SN12C renal = system: SN12C renal
SNB-19 CNS = system: SNB-19 CNS
SNB-75 CNS = system: SNB-75 CNS
SW-620 colon = system: SW-620 colon
T-47D breast = system: T-47D breast
TK-10 renal = system: TK-10 renal
U251 CNS = system: U251 CNS
UACC-257 melanoma = system: UACC-257 melanoma
UACC-62 melanoma = system: UACC-62 melanoma
UO-31 renal = system: UO-31 renal

Work on `O=C1/C(=C/c2ccc(F)cc2)COc2ccc(O)c(O)c21` yielded a GI50 (786-0 renal) of 1.84 µM, a TGI (786-0 renal) of 5.63 µM and a GI50 (A498 renal) of 12.5 µM. It also gave a TGI (A498 renal) of 28.3 µM, a GI50 (A549 NSCLC) of 3.32 µM and a TGI (A549 NSCLC) greater than 100 µM. For the same compound, the GI50 (ACHN renal) was 1.43 µM, the TGI (ACHN renal) was 2.89 µM and the GI50 (BT-549 breast) was 2.96 µM. For the same compound, the TGI (BT-549 breast) was 8.73 µM, the GI50 (CAKI-1 renal) was 1.65 µM and the TGI (CAKI-1 renal) was 5.61 µM. It also gave a GI50 (CCRF-CEM leukemia) of 0.313 µM, a TGI (CCRF-CEM leukemia) of 1.46 µM and a GI50 (COLO 205 colon) of 2.76 µM. It also gave a TGI (COLO 205 colon) of 10.3 µM, a GI50 (DU-145 prostate) of 3.02 µM and a TGI (DU-145 prostate) of 43.6 µM. The GI50 (EKVX NSCLC) was 3.29 µM, the TGI (EKVX NSCLC) was 18.4 µM and the GI50 (HCC-2998 colon) was 1.8 µM. It also gave a TGI (HCC-2998 colon) of 3.57 µM, a GI50 (HCT-116 colon) of 1.87 µM and a TGI (HCT-116 colon) of 4.98 µM. For the same compound, the GI50 (HCT-15 colon) was 0.755 µM, the TGI (HCT-15 colon) was 5.85 µM and the GI50 (HL-60(TB) leukemia) was 0.604 µM. The TGI (HL-60(TB) leukemia) was 3.89 µM, the GI50 (HOP-62 NSCLC) was 3.43 µM and the TGI (HOP-62 NSCLC) was 17.8 µM. The GI50 (HS 578T breast) was 3.5 µM, the TGI (HS 578T breast) was greater than 100 µM and the GI50 (HT29 colon) was 3.37 µM. For the same compound, the TGI (HT29 colon) was greater than 100 µM, the GI50 (IGROV1 ovarian) was 1.1 µM and the TGI (IGROV1 ovarian) was 3.94 µM. For the same compound, the GI50 (K-562 leukemia) was 0.354 µM, the TGI (K-562 leukemia) was greater than 100 µM and the GI50 (KM12 colon) was 1.99 µM. The TGI (KM12 colon) was 6.82 µM, the GI50 (LOX IMVI melanoma) was 1.03 µM and the TGI (LOX IMVI melanoma) was 2.39 µM. It also gave a GI50 (M14 melanoma) of 3.21 µM, a TGI (M14 melanoma) of 19.2 µM and a GI50 (MALME-3M melanoma) of 1.68 µM. The TGI (MALME-3M melanoma) was 4.34 µM, the GI50 (MCF7 breast) was 1.02 µM and the TGI (MCF7 breast) was greater than 100 µM. It also gave a GI50 (MDA-MB-231 breast) of 1.43 µM, a TGI (MDA-MB-231 breast) of 6.25 µM and a GI50 (MDA-MB-435) of 2.07 µM. For the same compound, the TGI (MDA-MB-435) was 8.78 µM, the GI50 (MOLT-4 leukemia) was 1.37 µM and the TGI (MOLT-4 leukemia) was greater than 100 µM. It also gave a GI50 (NCI-H226 lung) of 2.47 µM, a TGI (NCI-H226 lung) of 7.08 µM and a GI50 (NCI-H23 lung) of 2.65 µM. For the same compound, the TGI (NCI-H23 lung) was 13.7 µM, the GI50 (NCI-H460 lung) was 3.33 µM and the TGI (NCI-H460 lung) was greater than 100 µM. For the same compound, the GI50 (NCI-H522 lung) was 0.304 µM, the TGI (NCI-H522 lung) was 1.24 µM and the GI50 (NCI/ADR-RES ovarian) was 1.96 µM. It also gave a TGI (NCI/ADR-RES ovarian) of 7.85 µM, a GI50 (OVCAR-3 ovarian) of 0.864 µM and a TGI (OVCAR-3 ovarian) of 9.4 µM. The GI50 (OVCAR-4 ovarian) was 2.77 µM, the TGI (OVCAR-4 ovarian) was greater than 100 µM and the GI50 (OVCAR-5 ovarian) was 3 µM. It also gave a TGI (OVCAR-5 ovarian) of 8.99 µM, a GI50 (OVCAR-8 ovarian) of 2.16 µM and a TGI (OVCAR-8 ovarian) greater than 100 µM. It also gave a GI50 (PC-3 prostate) of 1.16 µM, a TGI (PC-3 prostate) greater than 100 µM and a GI50 (RPMI-8226 leukemia) of 0.26 µM. The TGI (RPMI-8226 leukemia) was 0.714 µM, the GI50 (RXF 393 renal) was 1.85 µM and the TGI (RXF 393 renal) was 3.64 µM. The GI50 (SF-268 CNS) was 2.51 µM, the TGI (SF-268 CNS) was 9.27 µM and the GI50 (SF-295 CNS) was 8.09 µM. For the same compound, the TGI (SF-295 CNS) was greater than 100 µM, the GI50 (SF-539 CNS) was 1.28 µM and the TGI (SF-539 CNS) was 2.7 µM. The GI50 (SK-MEL-2 melanoma) was 4.61 µM, the TGI (SK-MEL-2 melanoma) was 47.5 µM and the GI50 (SK-MEL-28 melanoma) was 2.27 µM. It also gave a TGI (SK-MEL-28 melanoma) of 5.91 µM, a GI50 (SK-MEL-5 melanoma) of 3.16 µM and a TGI (SK-MEL-5 melanoma) of 11.7 µM. It also gave a GI50 (SK-OV-3 ovarian) of 4.45 µM, a TGI (SK-OV-3 ovarian) greater than 100 µM and a GI50 (SN12C renal) of 1.26 µM. For the same compound, the TGI (SN12C renal) was 3.79 µM, the GI50 (SNB-19 CNS) was 3.36 µM and the TGI (SNB-19 CNS) was 15.8 µM. The GI50 (SNB-75 CNS) was 1.71 µM, the TGI (SNB-75 CNS) was greater than 100 µM and the GI50 (SW-620 colon) was 2.03 µM. For the same compound, the TGI (SW-620 colon) was 11.3 µM, the GI50 (T-47D breast) was 2.4 µM and the TGI (T-47D breast) was 9.67 µM. It also gave a GI50 (TK-10 renal) of 4.74 µM, a TGI (TK-10 renal) greater than 100 µM and a GI50 (U251 CNS) of 1.46 µM. For the same compound, the TGI (U251 CNS) was 4.19 µM, the GI50 (UACC-257 melanoma) was 2.99 µM and the TGI (UACC-257 melanoma) was 17.7 µM. For the same compound, the GI50 (UACC-62 melanoma) was 2.1 µM, the TGI (UACC-62 melanoma) was 6.98 µM and the GI50 (UO-31 renal) was 1.05 µM. The TGI (UO-31 renal) was 2.27 µM.
